Values of other authors as cited in US20110287109A1 (MAX INTERNATIONAL, LLC, priority 2010, published 2011).

Legend:
glutathione levels = conditions: mice, 8 mmol/kg i.p.
[1] = test system: mice exposed to cyclophosphamide; conditions: 8 mmol/kg
[2] = test system: irradiation-induced bowel injury; conditions: mice, 1 g/kg
[3] = test system: acetaminophen hepatic and renal toxicity; conditions: mice, 2 g/kg
[4] = administered directly to humans
ATP levels = conditions: dogs subjected to ischemia (heart attack model), about 3 g/day for at least 5 days
exercise capacity = conditions: healthy humans, orally, 8-10 g per day by an adult

## O=C(O)[C@@H]1CSC(C(O)C(O)C(O)CO)N1 (stereo partly drawn) [RibCys, 2(R,S)-D-ribo-(1′,2′,3′,4′-tetrahydroxybutyl)thiazolidine-4(R)-carboxylic acid]
Glutathione levels; heart
  increase of glutathione level in heart: 1.5 ×
Glutathione levels; muscle tissue
  increase of glutathione level in muscle tissue: 2.5 ×
[1]
  delivery of protective amounts of cysteine: deliver effective protective amounts of cysteine
[2]
  protection against irradiation-induced bowel injury: protect mice against irradiation-induced bowel injury
[3]
  protection against acetaminophen hepatic and renal toxicity: protect mice against acetaminophen hepatic and renal toxicity

## O=C[C@H](O)[C@H](O)[C@H](O)CO [ribose]
[4]
  toxicity over wide dosage ranges: essentially non-toxic
ATP levels
  ATP levels: effectively restored and maintained ATP levels
Exercise capacity
  exercise capacity: increase exercise capacity
